From patent publication US9732094B2, “Arylquinazolines” (Merck Patent GmbH, priority 2013, dated 2017)
Read-outs that look alike come from different tables or passages of the source.

Experiments:
DNA-PK = DNA-PK (Homo sapiens (Human), UniProt P78527); test: DNA-PK assay (biochemical), flashplate 33P-ATP kinase assay; conditions: biochemical DNA-PK assay
Outline: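 Reactions ran in streptavidin-coated flashplates and were halted by 200 mM EDTA, with a further 30 min at room temperature before saline washing.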

[1] = target: DNA-PK phosphorylation at serine 2056 (Homo sapiens (Human), UniProt P78527); test: DNA-PK phosphorylation at serine 2056 (cellular), bleomycin-treated HCT116 cells, ELISA; type: cell-based; conditions: cellular DNA-PK phosphorylation at serine 2056, HCT116; read-out: IC50 pDNA-PK
Outline: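 After overnight seeding, HCT116 cells received compound with 10 μM bleomycin for 6 h; phospho-DNA-PK ELISA signals were scaled to total DNA-PKcs, DMSO serving as blank.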

Kv11.1 (hERG) = Kv11.1 (hERG) (Homo sapiens (Human), UniProt Q12809); test: Kv11.1 (hERG) ion channel activity (patch clamp assay), HEK293 cells transfected with hERG gene; conditions: hERG patch clamp assay (cells without asterisk)
Chain of Kv11.1 (hERG) (Q12809 whole entry): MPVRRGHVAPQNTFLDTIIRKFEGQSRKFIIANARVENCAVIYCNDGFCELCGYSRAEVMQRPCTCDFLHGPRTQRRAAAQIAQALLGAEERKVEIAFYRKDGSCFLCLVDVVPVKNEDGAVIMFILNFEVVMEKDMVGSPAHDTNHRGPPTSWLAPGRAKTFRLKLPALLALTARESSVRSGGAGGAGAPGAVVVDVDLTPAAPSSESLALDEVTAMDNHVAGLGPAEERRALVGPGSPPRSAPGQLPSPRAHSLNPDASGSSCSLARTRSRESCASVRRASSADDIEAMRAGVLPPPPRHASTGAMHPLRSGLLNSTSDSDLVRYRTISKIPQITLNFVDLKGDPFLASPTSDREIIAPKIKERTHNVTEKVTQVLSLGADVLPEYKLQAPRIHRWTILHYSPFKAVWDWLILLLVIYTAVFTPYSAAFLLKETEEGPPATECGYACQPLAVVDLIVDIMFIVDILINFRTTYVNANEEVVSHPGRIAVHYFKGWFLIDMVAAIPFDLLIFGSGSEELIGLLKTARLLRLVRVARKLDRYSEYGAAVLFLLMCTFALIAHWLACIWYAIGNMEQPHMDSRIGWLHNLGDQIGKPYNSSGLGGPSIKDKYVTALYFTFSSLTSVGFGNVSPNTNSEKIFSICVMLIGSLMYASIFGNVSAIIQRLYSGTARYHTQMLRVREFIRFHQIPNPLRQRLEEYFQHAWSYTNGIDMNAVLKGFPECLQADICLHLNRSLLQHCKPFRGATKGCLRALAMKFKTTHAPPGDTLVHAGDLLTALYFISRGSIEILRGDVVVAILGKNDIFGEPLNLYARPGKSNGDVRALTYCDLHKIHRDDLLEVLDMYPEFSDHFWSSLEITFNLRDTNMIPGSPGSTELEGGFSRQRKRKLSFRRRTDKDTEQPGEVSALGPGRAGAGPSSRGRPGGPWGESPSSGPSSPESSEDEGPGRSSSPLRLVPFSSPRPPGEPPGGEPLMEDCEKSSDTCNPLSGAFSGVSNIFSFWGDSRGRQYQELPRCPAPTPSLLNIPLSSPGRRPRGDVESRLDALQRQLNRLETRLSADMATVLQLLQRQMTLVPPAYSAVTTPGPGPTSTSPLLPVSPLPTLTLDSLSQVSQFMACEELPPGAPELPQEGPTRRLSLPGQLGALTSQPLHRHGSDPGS

IC50 (DNA-PK) [µM] | IC50 [1] [µM] | Structure (SMILES) | Ki (Kv11.1 (hERG); read-out: Ki [Kv1.11 hERG]) [µM] | Ki (Kv11.1 (hERG); Ki [Kv1.11 hERG]) [µM]
0.007 to 0.03 | 10 to 30 | Oc1ncnc(C(O)c2cc(-c3ncnc4cc(N5CCOCC5)ccc34)ccc2Cl)c1Cl (stereo not drawn) [Example 330, 5-Chloro-6-{[2-chloro-5-(7-morpholin-4-yl-quinazolin-4-yl)-phenyl]hydroxy-methyl}pyrimidin-4-ol] | > 25 | –
0.007 to 0.03 | 5 to 10 | Cc1nccnc1/C(C(=O)O)=C1/C=CC(=O)C(c2ncnc3cc(N4CCOCC4)ccc23)=C1 [Example 331, (3-methyl-pyrazin-2-yl)-[3-(7-morpholin-4-ylquinazolin-4-yl)-4-oxocyclohexa-2,5-dien-(E)-ylidene]-acetic acid] | > 25 | –
< 0.003 | < 0.5 | OC(c1ccc(F)c(-c2ncnc3cc(N4CCOCC4)ccc23)c1)c1nncc2ccsc12 (stereo not drawn) [Example 332, [4-Fluoro-3-(7-morpholin-4-yl-quinazolin-4-yl)-phenyl]thieno[2,3-d}-pyridazin-7-yl-methanol] | – | 15 to 25
< 0.003 | < 0.5 | OC(c1ccc(F)c(-c2ncnc3cc(N4CCOCC4)ccc23)c1)c1nncc2sccc12 (stereo not drawn) [Example 333, [4-Fluoro-3-(7-morpholin-4-yl-quinazolin-4-yl)-phenyl]thieno[2,3-d}-pyridazin-4-yl-methanol] | – | 15 to 25
> 0.03 | 10 to 30 | Cc1cc(C(C(N)=O)c2cc(-c3ncnc4cc(N5CCOCC5)ccc34)c(F)cc2Cl)n(C)c(=O)c1 (stereo not drawn) [Example 334, 2-[2-Chloro-4-fluoro-5-(7-morpholin-4-yl-quinazolin-4-yl)-phenyl]-2-(1,4-dimethyl-6-oxo-1,6-dihydropyridin-2-yl)-acetamide] | > 25 | –
< 0.003 | < 0.5 | OC(c1ccc(F)c(-c2ncnc3cc(N4CCOCC4)ccc23)c1)c1nncc2ccoc12 (stereo not drawn) [Example 335, [4-Fluoro-3-(7-morpholin-4-yl-quinazolin-4-yl)-phenyl]furo[2,3-d}-pyridazin-7-yl-methanol] | > 25 | –
< 0.003 | < 0.5 | OC(c1cc(-c2ncnc3cc(N4CCOCC4)ccc23)c(F)cc1F)c1nncc2ccoc12 (stereo not drawn) [Example 336, [2,4-Difluoro-5-(7-morpholin-4-yl-quinazolin-4-yl)-phenyl]furo[2,3-d}-pyridazin-7-yl-methanol] | > 25 | –
< 0.003 | 0.5 to 5 | O=c1[nH]nc(C(O)c2ccc(F)c(-c3ncnc4cc(N5CCOCC5)ccc34)c2)c2sccc12 (stereo not drawn) [Example 337, 7-[[4-Fluoro-3-(7-morpholino-quinazolin-4-yl)-phenyl]hydroxy-methyl]-5H-thieno-[2,3-d}pyridazin-4-one] | – | 15 to 25
< 0.003 | 0.5 to 5 | O=c1[nH]nc(C(O)c2ccc(F)c(-c3ncnc4cc(N5CCOCC5)ccc34)c2)c2ccsc12 (stereo not drawn) [Example 338, 4-[[4-Fluoro-3-(7-morpholino-quinazolin-4-yl)-phenyl]hydroxy-methyl]-6H-thieno[2,3-d}-pyridazin-7-one] | > 25 | –
0.007 to 0.03 | 0.5 to 5 | Cc1cc(C(O)c2cc(-c3ncnc4cc(N5CCOCC5)ccc34)c(F)cc2Cl)n(C)c(=O)c1 (stereo not drawn) [Example 339, 6-{[2-Chloro-4-fluoro-5-(7-morpholin-4-yl-quinazolin-4-yl)-phenyl]hydroxy-methyl}-1,4-dimethyl-1H-pyridin-2-one] | > 25 | –
< 0.003 | 0.5 to 5 | Cc1cc(C(O)c2ccc(F)c(-c3ncnc4cc(N5CCOCC5)ccc34)c2)n(C)c(=O)c1 (stereo not drawn) [Example 340, 6-{[4-Fluoro-3-(7-morpholin-4-yl-quinazolin-4-yl)-phenyl]hydroxy-methyl}-1,4-dimethyl-1H-pyridin-2-one] | > 25 | –
< 0.003 | < 0.5 | OC(c1cc(-c2ncnc3cc(N4CCOCC4)ccc23)c(F)cc1F)c1nncc2sccc12 (stereo not drawn) [Example 341, [2,4-Difluoro-5-(7-morpholin-4-yl-quinazolin-4-yl)-phenyl]thieno[2,3-d}-pyridazin-4-yl-methanol] | – | 15 to 25
< 0.003 | < 0.5 | OC(c1cc(-c2ncnc3cc(N4CCOCC4)ccc23)c(F)cc1F)c1nncc2ccsc12 (stereo not drawn) [Example 342, [2,4-Difluoro-5-(7-morpholin-4-yl-quinazolin-4-yl)-phenyl]thieno[2,3-d}-pyridazin-7-yl-methanol] | > 25 | –
< 0.003 | 0.5 to 5 | OC(c1ccc(F)c(-c2ncnc3cc(N4CCOCC4)ccc23)c1)c1nnc2ccccn12 (stereo not drawn) [Example 343, [4-Fluoro-3-(7-morpholin-4-yl-quinazolin-4-yl)-phenyl]-[1,2,4]-triazolo[4,3-a]pyridin-3-ylmethanol] | – | 15 to 25
< 0.003 | 5 to 10 | OC(c1ccc(F)c(-c2ncnc3cc(N4CCOCC4)ccc23)c1)c1nnc2ccccn12 (stereo not drawn) [Example 344, [4-Fluoro-3-(7-morpholin-4-yl-quinazolin-4-yl)-phenyl]-[1,2,4]-triazolo[4,3-a]pyridin-3-ylmethanol] | > 25 | –
< 0.003 | < 0.5 | OC(c1ccc(F)c(-c2ncnc3cc(N4CCOCC4)ccc23)c1)c1ncnn2cccc12 (stereo not drawn) [Example 345, [4-Fluoro-3-(7-morpholin-4-yl-quinazolin-4-yl)-phenyl]pyrrolo[2,1-f]-[1,2,4]triazin-4-yl-methanol] | < 10 | –
0.007 to 0.03 | 10 to 30 | Cn1cnc2c(C(O)c3cc(-c4ncnc5cc(N6CCOCC6)ccc45)c(F)cc3F)ncnc21 (stereo not drawn) [Example 346, [2,4-Difluoro-5-(7-morpholin-4-yl-quinazolin-4-yl)-phenyl]-(9-methyl-9H-purin-6-yl)-methanol] | – | 15 to 25
0.003 to 0.007 | 0.5 to 5 | Cn1cnc2c(C(O)c3cc(-c4ncnc5cc(N6CCOCC6)ccc45)c(F)cc3F)ncnc21 (stereo not drawn) [Example 347, [2,4-Difluoro-5-(7-morpholin-4-yl-quinazolin-4-yl)-phenyl]-(9-methyl-9H-purin-6-yl)-methanol] | > 25 | –
< 0.003 | 0.5 to 5 | NC(=O)C(c1cc(-c2ncnc3cc(N4CCOCC4)ccc23)c(F)cc1F)c1nccn2cccc12 (stereo not drawn) [Example 348, 2-[2,4-Difluoro-5-(7-morpholin-4-yl-quinazolin-4-yl)-phenyl]-2-pyrrolo-[1,2-a]pyrazin-1-yl-acetamide] | – | 10 to 15
0.003 to 0.007 | < 0.5 | Cc1nccnc1Cc1ccc(F)c(-c2ncnc3cc(N4CCOCC4)ccc23)c1 [Example 349, 4-[2-Fluoro-5-(3-methyl-pyrazin-2-ylmethyl)phenyl]-7-morpholin-4-yl-quinazoline] | > 25 | –
0.003 to 0.007 | 5 to 10 | OC(c1cc(-c2ncnc3cc(N4CCOCC4)ccc23)c(F)cc1F)c1cccc2nncn12 (stereo not drawn) [Example 350, [2,4-Difluoro-5-(7-morpholin-4-yl-quinazolin-4-yl)-phenyl]-[1,2,4]-triazolo[4,3-a]pyridin-5-ylmethanol] | > 25 | –
0.007 to 0.03 | 10 to 30 | OC(c1ccc(F)c(-c2ncnc3cc(N4CCOCC4)ccc23)c1)c1nccn2cnnc12 (stereo not drawn) [Example 351, [4-Fluoro-3-(7-morpholin-4-yl-quinazolin-4-yl)-phenyl]-[1,2,4]-triazolo[4,3-a]-pyrazin-8-ylmethanol] | > 25 | –
